Read-outs that look alike come from different tables or passages of the source.
Columns and labels:
clinical = settings: for AUC(0-t) / half-life / concentration at 4 h / concentration at 8 h: human, whole blood
Experimental: Whole blood samples (2 mL each) for pharmacokinetic analyses were collected at the following time points: <5 minutes before dosing on days 1 through 5 and at 0.5, 1, 2, 4, 8, 24, and 72 hours after drug administration on day 5 of the first week of the first treatment cycle. Blood concentrations of ridaforolimus were determined using a validated liquid chromatography/tandem mass spectrometry assay as in previous ridaforolimus studies (Charles River Laboratories, Shrewsbury, MA). The pharmacokinetic parameters of AUC0–24h and elimination half-life (t1/2) were determined by noncompartmental modeling using WinNonlin software (Pharsight, Certara, Princeton, NJ).

advanced solid tumors = test: Antitumor activity, investigator assessment by RECIST v1.1; assay type: in vivo, human
Experimental: All patients were to have computed tomography or magnetic resonance imaging scans at baseline, every 2 cycles during treatment, and at the time of treatment discontinuation. Local investigator assessment of treatment response was performed using RECIST v1.1 [43].

[1] = tested on: adults with advanced solid tumors; settings: cited from earlier work
[2] = tested on: heavily pretreated solid tumors; design: method as in PMID 23659969; settings: cited from earlier work
[3] = design: method as in earlier work; settings: 40 mg once daily 5 days per week, ref data on file with ARIAD Pharmaceuticals, Inc./Merck & Co.; cited from earlier work
[4] = 1 patient with pineoblastoma, 22 mg/m^2

Compound: CO[C@H]1C[C@@H]2CC[C@@H](C)[C@@](O)(O2)C(=O)C(=O)N2CCCC[C@H]2C(=O)O[C@H]([C@H](C)C[C@@H]2CC[C@@H](OP(C)(C)=O)[C@H](OC)C2)CC(=O)[C@H](C)/C=C(\C)[C@@H](O)[C@@H](OC)C(=O)[C@H](C)C[C@H](C)/C=C/C=C/C=C/1C [ridaforolimus]
- Exposure (day 5 AUC0–24h) higher than adult target level (clinical; 28 mg/m^2 vs adult RP2D 40 mg (1,739 h•ng/mL)): approximately 34%
- BSADN AUC, lower bound of 90% 1-sided confidence interval for geometric mean (clinical; 33 mg/m^2): 61.2 h•ng•m^2/(mL•mg)
- C4h, lower bound of 90% 1-sided confidence interval for geometric mean (clinical; 33 mg/m^2): 154 ng/mL
- C8h, lower bound of 90% 1-sided confidence interval for geometric mean (clinical; 33 mg/m^2): 100 ng/mL
- Day 5 AUC0–24h, lower bound of 90% 1-sided confidence interval for geometric mean (clinical; 33 mg/m^2): 2,020 h•ng/mL
- t1/2, lower bound of 90% 1-sided confidence interval for geometric mean (clinical; 33 mg/m^2): 23.0 h
- BSADN AUC (AUC normalized by BSA-adjusted dose), geometric mean (clinical; 33 mg/m^2, n = 11): 69.8 h•ng•m^2/(mL•mg)
- Exposure (day 5 AUC0–24h) higher than adult target level (clinical; 33 mg/m^2 vs adult RP2D 40 mg (1,739 h•ng/mL)): ~31%
- AUC(0-t) (clinical; oral, 22 mg/m2): 1340 ng·h/mL
- half-life (clinical; oral, 22 mg/m2, t1/2, arithmetic mean (SD), 22 mg/m^2, n = 3): 25.5 h
- half-life (clinical; oral, 22 mg/m2, t1/2, geometric mean (CV%), 22 mg/m^2, n = 3): 25.5 h
- half-life (clinical; oral, 22 mg/m2, t1/2, median (range), 22 mg/m^2, n = 3): 24.5 h
- concentration at 4 h (clinical; oral, 22 mg/m^2, C4h, arithmetic mean (SD), day 5, 22 mg/m^2, n = 4): 139 ng/mL
- concentration at 4 h (clinical; oral, 22 mg/m^2, C4h, geometric mean (CV%), day 5, 22 mg/m^2, n = 4): 131 ng/mL
- concentration at 8 h (clinical; oral, 22 mg/m^2, C8h, arithmetic mean (SD), day 5, 22 mg/m^2, n = 4): 74 ng/mL
- concentration at 8 h (clinical; oral, 22 mg/m^2, C8h, geometric mean (CV%), day 5, 22 mg/m^2, n = 4): 71 ng/mL
- AUC(0-t) (clinical; oral, 28 mg/m2): 2330 ng·h/mL
- half-life (clinical; oral, 28 mg/m2, t1/2, arithmetic mean (SD), 28 mg/m^2, n = 3): 28.2 h
- half-life (clinical; oral, 28 mg/m2, t1/2, geometric mean (CV%), 28 mg/m^2, n = 3): 27.2 h
- half-life (clinical; oral, 28 mg/m2, t1/2, median (range), 28 mg/m^2, n = 3): 26.5 h
- concentration at 4 h (clinical; oral, 28 mg/m^2, C4h, arithmetic mean (SD), day 5, 28 mg/m^2, n = 3): 228 ng/mL
- concentration at 4 h (clinical; oral, 28 mg/m^2, C4h, geometric mean (CV%), day 5, 28 mg/m^2, n = 3): 227 ng/mL
- concentration at 8 h (clinical; oral, 28 mg/m^2, C8h, arithmetic mean (SD), day 5, 28 mg/m^2, n = 3): 119 ng/mL
- concentration at 8 h (clinical; oral, 28 mg/m^2, C8h, geometric mean (CV%), day 5, 28 mg/m^2, n = 3): 116 ng/mL
- AUC(0-t) (clinical; oral, 33 mg/m2): 2280 ng·h/mL
- half-life (clinical; oral, 33 mg/m2, t1/2, arithmetic mean (SD), 33 mg/m^2, n = 9): 26.9 h
- half-life (clinical; oral, 33 mg/m2, t1/2, geometric mean (CV%), 33 mg/m^2, n = 9): 26 h
- half-life (clinical; oral, 33 mg/m2, t1/2, median (range), 33 mg/m^2, n = 9): 24.9 h
- concentration at 4 h (clinical; oral, 33 mg/m^2, C4h, arithmetic mean (SD), day 5, 33 mg/m^2, n = 11): 200 ng/mL
- concentration at 4 h (clinical; oral, 33 mg/m^2, C4h, geometric mean (CV%), day 5, 33 mg/m^2, n = 11): 184 ng/mL
- concentration at 8 h (clinical; oral, 33 mg/m^2, C8h, arithmetic mean (SD), day 5, 33 mg/m^2, n = 12): 118 ng/mL
- concentration at 8 h (clinical; oral, 33 mg/m^2, C8h, geometric mean (CV%), day 5, 33 mg/m^2, n = 12): 113 ng/mL
- half-life (clinical; oral, Mean (geometric) elimination half-lives, independent of dose level): 26 to 27 h
- Steady state from trough concentrations (predose days 1 through 5) (clinical; oral once daily): steady-state concentrations had been achieved at day 5
- Lag before absorption after dosing (clinical; oral, all dose levels): approximately 2 hours
- Time of highest blood concentrations after dosing (clinical; oral, all dose levels): ~4 h
- Patients discontinued due to progressive disease (advanced solid tumors; 33 mg/m^2 (n = 13), 77%): 10 patients
- Progression-free survival (advanced solid tumors; 1 patient with diffuse intrinsic pontine glioma): > 42 months
- Duration of stable disease (advanced solid tumors; 1 patient with diffuse intrinsic pontine glioma, 33 mg/m^2, as of January 2016): 46 cycles
- Duration of stable disease (advanced solid tumors; [4]): 12 cycles
- Progression-free survival (advanced solid tumors; [4]): 12.8 months
- Partial or complete response (advanced solid tumors; all patients, N = 20): None of the patients had a partial or complete response
- Patients with evidence of clinical benefit (advanced solid tumors; of the 20 treated pediatric patients (10%)): 2 patients
- MTD ([1]; intravenous): 18.75 mg/day
- Adult RP2D ([1]; oral, once daily for 5 days per week): 40 mg
- MTD ([1]; oral, once daily × 5 days per week regimen): 40 mg
- Stable disease in patients with central nervous system tumors ([2]; intravenous 8-16 mg/m^2): 4 of 6
- Stable disease in patients with sarcomas ([2]; intravenous 8-16 mg/m^2): 2 of 8
- Patients with stable disease / clinical benefit ([2]; intravenous 8-16 mg/m^2 daily for 5 consecutive days every other week, of 15 evaluable (40%)): 6 patients
- DLTs ([2]; intravenous 8–16 mg/m^2 daily for 5 consecutive days every other week): no DLTs were observed
- Day 5 AUC0–24h in adults, estimated geometric mean [3]: 1,739 h•ng/mL

Source: article PMC5356695, “A phase 1 study of oral ridaforolimus in pediatric patients with advanced solid tumors” (Oncotarget, 2016)
